From patent US20250049946A1, “SULFONATO RESORCINARENE-COMPLEXED FLUOROQUINOLONES AND METHODS OF USE” (University of Cincinnati, priority 2023, published 2025)

Columns and labels:
[1] = tested on: P. aeruginosa; assay: in vitro antibacterial activity (MIC assay, 96-well, absorbance at 600 nm); type: cell-based, Pseudomonas aeruginosa; details: for inhibition of bacterial cells: at higher concentration, P. aeruginosa
Description: (§1) The in vitro antibacterial activity was tested using a Gram-positive bacterial pathogen, S. aureus, and sensitive and resistant strains of a Gram-negative bacterial pathogen, P. aeruginosa using a high-throughput format in a 96-well microtiter plate, as described previously. Briefly, an inoculum of the test organism was grown to mid-log phase in a Luria broth (LB) medium containing 10 g/L tryptone, 5 g/L yeast extract, and 10 g/L sodium chloride. A 50 μL aliquot of the 100-fold diluted bacterial inoculum was placed in each test well. […]. All experiments were performed in triplicate. For each measurement, three samples in each replicate were analyzed and data were recorded as mean±standard deviation (SD). A paired two-tailed t-test was employed for mean comparison, with significance determined at p<0.05. The dcata analysis was conducted using the Excel program.
(§2) The antibacterial effectiveness of complexed FQs was assessed in comparison to uncomplexed FQs against Gram-positive Staphylococcus aureus (S. aureus) and Gram-negative Pseudomonas aeruginosa (P. aeruginosa) through a minimum inhibitory concentration (MIC) assay conducted at various concentrations. […] The percentage growth inhibition of bacterial cells treated with complexed and uncomplexed FQs was determined by comparing with the untreated control (FIGS. 13A-13C). The concentrations tested for P. aeruginosa and S. aureus varied based on the MIC of individual antibiotics. […]

[2] = tested on: S. aureus; assay: as above; type: cell-based, Staphylococcus aureus; details: for inhibition of bacterial cells: at higher concentration, S. aureus
Description: as §1, §2

[3] = partition coefficient (Ko/w) n-octanol / phosphate buffer; type: physicochemical; details: octanol / phosphate buffer pH 7.4, 25 °C, 24 h; complexes with 10 times higher host stock

| Structure (SMILES) | killing of P. aeruginosa bacteria ([1]; 4 μg/mL, 24 h, FIG. 13A) | inhibition of bacterial cells [1] | killing of S. aureus ([2]; 12 μg/mL, 24 h, FIG. 13A) | inhibition of bacterial cells [2] | inhibitory effect on P. aeruginosa cells ([1]; […] (so in the source), 24 h, FIG. 13B) | inhibition at 128 µg/mL ([2]; Staphylococcus aureus, 128 μg/mL, 24 h, FIG. 13B, read-out: inhibitory effect on S. aureus cells) | log P (experimental partition coefficient Ko/w) [3] |
| --- | --- | --- | --- | --- | --- | --- | --- |
| O=C(O)c1cn(C2CC2)c2cc(N3CCNCC3)c(F)cc2c1=O [CIPRO, ciprofloxacin] | 100.67±0.39% | 90% | 98.30±0.26% | 90% |  |  |  |
| CCn1cc(C(=O)O)c(=O)c2cc(F)c(N3CCNCC3)cc21 [NOR, norfloxacin] |  | 90% |  | 90% | 100.43±0.17% | 97.9 ± 0.38% |  |
| CC1c2cc(c(O)c(CS(=O)(=O)O)c2O)C(C)c2cc(c(O)c(CS(=O)(=O)O)c2O)C(C)c2cc(c(O)c(CS(=O)(=O)O)c2O)C(C)c2cc1c(O)c(CS(=O)(=O)O)c2O (stereo not drawn) [SRsC1, sulfonato-C-methylresorcin[4]arene] |  |  |  |  |  |  | −0.99 |
| C[C@H]1COc2c(N3CCN(C)CC3)c(F)cc3c(=O)c(C(=O)O)cn1c23 [LEVO, levofloxacin] |  | 90% |  | 90% |  |  | −0.41 |
